For 14 compounds, IC50 results are on record in ChEMBL document CHEMBL4033740, “Novel phenanthrene and isocoumarin from the rhizomes of Dioscorea nipponica Makino subsp. rosthornii (Prain et Burkill) C. T. Ting (Dioscoreaceae)” (Bioorg Med Chem Lett, 2017).

The assay deals with NCI-H460. The experiment in a line: Cytotoxicity against human NCI-H460 cells incubated for 24 hrs by MTT assay. The class given is functional, cell-based. The following applies: NCI-H460, 24 h. On the technique in general: Tetrazolium assays rely on reduction of a dye to a coloured formazan, in cell work by metabolically active cells.

By IC50 is commonly meant the midpoint of a concentration-inhibition curve. High values mean weaker potency in that assay, low ones greater potency in that assay. Take `CC(=O)O[C@H]1CC[C@@]2(C)C(=CC[C@H]3[C@@H]4C[C@@H]5O[C@]6(CC[C@@H](C)CO6)[C@@H](C)[C@@H]5[C@@]4(C)CC[C@@H]32)C1`: the 50% inhibitory concentration (IC50) is above 50 µM.

`O=c1oc(-c2ccccc2O)cc2cc3c(c(O)c12)OCO3` returned a half-inhibitory concentration (IC50) above 50 µM.

As for `COc1cc2ccc3c(-c4c(OC)cc(O)c5c4ccc4cc(OC)c(O)cc45)c(OC)cc(O)c3c2cc1O`, inhibition was half-maximal at 23.1 µM (IC50). This counts as double-digit micromolar.

Compound `O=C(C[C@@H]1C[C@@H](O)C[C@H](c2ccccc2)O1)c1ccccc1` had a half-maximal inhibitory concentration (IC50) above 50 µM.

In turn, `O=C1O[C@H](c2ccccc2)Cc2cc(O)cc(O)c21` showed an IC50 above 50 µM.

In turn, `C[C@H]1[C@H]2[C@H](C[C@H]3[C@@H]4CC=C5C[C@@H](O)CC[C@]5(C)[C@H]4CC[C@]23C)O[C@]12CC[C@@H](CO)CO2` returned a half-inhibitory concentration (IC50) above 50 µM.

`CC(C)C[C@H]1NC(=O)[C@@H]2CCCN2C1=O` showed a half-maximal inhibitory concentration (IC50) above 50 µM.

As for `O=C(/C=C/C=C/c1ccc(O)cc1)CCc1ccc(O)cc1`, the IC50 was above 50 µM.

In turn, `CCCCC(CC)COC(=O)c1ccccc1C(=O)OCC(CC)CCCC` (centres undefined) [BIS(2-ETHYLHEXYL) PHTHALATE] came in with an IC50 above 50 µM.

Consider `C[C@@H]1CC[C@@]2(OC1)O[C@H]1C[C@H]3[C@@H]4CC=C5C[C@@H](O[C@@H]6O[C@H](CO)[C@@H](O[C@@H]7O[C@H](CO)[C@@H](O)[C@H](O)[C@H]7O)[C@H](O)[C@H]6O[C@@H]6O[C@@H](C)[C@H](O)[C@@H](O)[C@H]6O)CC[C@]5(C)[C@H]4CC[C@]3(C)[C@H]1[C@@H]2C` [DELTONIN], for which the IC50 was 5.81 µM.

On to `C[C@@H]1CC[C@@]2(OC1)O[C@H]1C[C@H]3[C@@H]4CC=C5C[C@@H](O[C@@H]6O[C@H](CO)[C@@H](O[C@@H]7O[C@@H](C)[C@H](O)[C@@H](O)[C@H]7O)[C@H](O)[C@H]6O[C@@H]6O[C@@H](C)[C@H](O)[C@@H](O)[C@H]6O)CC[C@]5(C)[C@H]4CC[C@]3(C)[C@H]1[C@@H]2C` [DIOSCIN], for which the IC50 is 4.56 µM.

`C[C@@H]1CC[C@@]2(OC1)O[C@H]1C[C@H]3[C@@H]4CC=C5C[C@@H](O)CC[C@]5(C)[C@H]4CC[C@]3(C)[C@H]1[C@@H]2C` [DISOGENIN] came in with an IC50 above 50 µM.

Regarding `C[C@@H]1CC[C@@]2(OC1)O[C@H]1C[C@H]3[C@@H]4CC=C5C[C@@H](O[C@@H]6O[C@H](CO)[C@@H](O)[C@H](O)[C@H]6O[C@@H]6O[C@@H](C)[C@H](O)[C@@H](O)[C@H]6O)CC[C@]5(C)[C@H]4CC[C@]3(C)[C@H]1[C@@H]2C` [OPHIOPOGONIN C], it took 5.04 µM to reach half-maximal inhibition (IC50).

In turn, `CC[C@H](CC[C@@H](C)[C@H]1CC[C@H]2[C@@H]3CC=C4C[C@@H](O[C@@H]5O[C@H](CO)[C@@H](O)[C@H](O)[C@H]5O)CC[C@]4(C)[C@H]3CC[C@]12C)C(C)C` [SITOGLUSIDE] had a half-inhibitory concentration (IC50) above 50 µM.
